Patent US20030165486A1, “Compositions and methods for the induction of retinal detachments” (priority 1999, published 2003)
Like-named read-outs stand apart in the source and are kept apart here.

Key:
eyes of rabbits = tested on: eyes of rabbits
Experimental: Fifty-two (52) healthy rabbits of the New Zealand Cross variety (26 male, 26 female) weighing 1.5 kg to 2.5 kg were individually marked for identification and were housed individually in suspended cages. The animals received a commercially available pelleted rabbit feed on a daily basis, with tap water available ad libitum.
Two animals in each group (1 male, 1 female) were selected for pretreatment fundus photography and fluorescein angiography.
The fundus photography was performed by restraining the animals and visualizing the optic nerve, retinal arcades and fundus with a KOWA® RC-3 Fundus Camera loaded with Kodak Gold 200 ASA film.
The fluorescein angiography involved a 1.5-ml injection of 2% sterile fluorescein solution via the marginal ear vein. Approximately 30 seconds post-injection the fluorescein was visualized upon localization of the optic nerve, retinal vessels and fundus.
The following day, each animal was anesthetized by intravenous administration of a combination of 34 mg/kg of ketamine hydrochloride and 5-mg/kg xylazine. The eyelids were retracted using a lid speculum, and the eyes were disinfected with an iodine-povidone wash.
The experimental treatments administered to each animal group were as follows:
The day following the injections (Day 1) the 26 animals, which were subjected to the fundus photography and fluorescein angiography, were observed using the same methods as for the pre-dose examination.
Alternatively, one randomly selected rabbit was euthanized by pentobarbital injection but then fixed by intracardiac injection of the gluteraldehyde solution into the left ventricle to determine the effect of the fixation procedure on the histology findings within the enucleated eyes.
On Day 7, the 13 female rabbits that had been previously photographed and angiography performed were subjected to same observations following the methods previously described.
The remaining 26 animals were euthanized as described above 7 days after dosing. The eyes were fixed in the same manner as those, which had been fixed on day 2. […]

retina of rabbit eyes [1] = assay type: in vivo; settings: for Electro Retinography Results / Histological and Electron Microscopic Results / Retinal Detachment at 48 hours Post 2nd Injection / Retinal Reattachment at 3 weeks Post 2nd Injection: 50 μl of 75 I.U. hyaluronidase intravitreally, 3 days later 50 μl sterile PEG, n = 6; for Retinal Detachment at 48 hours Post 2nd Injection / Retinal Reattachment at 3 weeks Post 2nd Injection: fundus photos, β scans; for safety by indirect ophthalmoscopy, fundus photography, light and electron microscopy and electroretinography: intravitreal hyaluronidase followed by intravitreal PEG
Experimental: In this study, 12-pigmented rabbits were divided into 2 groups of 6 animals each. Group I consisted of six animals that were injected OD with PEG 300. […] As a control, these same animals received saline injections OS and thus served as a control group (Group Ia).
Group II consisted of six animals that were injected that were injected OD with PEG 400. […] As a control, these same animals received saline injections OS and thus served as a control group (Group IIa).
During this procedure a number of ophthalmic methodologies were utilized to monitor the effects and progress of the various experimental treatments. For example, indirect ophthalmoscopy was utilized by a retinal specialist to determine the effects of administering a retinal detaching dose of the compounds disclosed. […] Light microscopy and electron microscopy of eye samples was used to determine the effect of the treatments from a histological perspective. Ultrasonography techniques were used to objectively determine the presence of retinal detachment. Additionally, electroretinography was performed to determine changes due to treatment.

retina of rabbit eyes [2] = experiment: Induction of reversible retinal detachment in rabbits using varying concentration of PEG 300 (Example 5); assay type: in vivo
Experimental: In this study, 8-pigmented rabbits were divided into 4 groups of 2 animals each. Group I consisted of 2 animals treated with 100% PEG 300. As performed in Example 1, these animals were first injected intravitreally (OD) with 50 μl of 75 I.U. of Hyaluronidase solution (Group I). Fourteen days after the first injection these animals received 50 μl of 100% sterile PEG 300 intravitreally. The OS eye was used as the untreated control as described in Example 1 (Group Ia). A second group of two animals, Group II, was first injected intravitreally (OD) with 50 μl of 75 I.U. of Hyaluronidase solution and then injected 14 days later with 50 μl of sterile 75% solution of PEG 300 intravitreally. The OS eyes of these animals were used as the untreated controls (Group IIa). […] were treated according to the same protocols as described for Groups I, Ia, II, and IIa with the exception that Group III received 50 μl of 50% sterile solution of PEG 300 intravitreally. Similarly, Groups IV and IVa were treated according to the same protocols as described above, however, Group IV received 50 μl of 25% sterile solution of PEG 300 intravitreally.
All retinal detachments and retinal re-attachments were documented using Fundus Photography and Ultrasonography (β-Scan). In addition, 3 rabbit eyes were enucleated and the eyes were prepared for light microscopy as well as for Electron Microscopy.

detached retinas of cats = experiment: Protection of surgically detached retina from degeneration in adult cats (Example 6); assay type: in vivo, adult cats (Felis domesticus); settings: 100 μl of Table 5 formulation 6 hours after detachment, 3 days
Experimental: The study is performed on 15 adult cats (Felis domesticus) and modeled generally on the study of Mervin, et al., “Limiting Photoreceptor Death and Deconstruction During Experimental Retinal Detachment: The Value of Oxygen Supplementation,” Am. J. Ophthal. 128:155-164 (1999). Unlike the Mervin study however, the present experiment examines the effect of hyaluronidase administration to prevent photoreceptor death rather than the effect of supplemental oxygen administration.
Three groups of five adult domestic cats (Experimental Group I, Experimental Group II, and Control Group I) are anesthetized using 10 mg/kg of xylazine (Boehringer Ingelheim Vetmedica, Inc., St. Joseph, Mo.) and 50 mg/kg of ketamine (Sigma, St. Louis, Mo.). The surgical method of Anderson, et al., (Invest. Ophthalmol. Vis. Sci. 27:168-183 (1986)) is used to induce retinal detachment in two experimental groups of 5 cats each, however, the lens and vitreous of these cats are left in place during the surgical procedure.
During the procedure, a glass micropipette is introduced through a 20-gauge hole in the sclera at the region of the pars plana. A balanced salt solution (BSS) containing 0.25% sodium hyaluronate is then infused between the neural retina and retinal pigment epithelium. A single detachment is produced in the right eye of each of the 10 cats.
The experimental groups are allowed to recover for six hours. […]

[3] = 75 I.U. hyaluronidase, 14 days later varying concentrations of PEG 300
[4] = Groups I-IV OD: 75 I.U. hyaluronidase, 14 days later 50 μl sterile 100%, 75%, 50% or 25% PEG 300, fundus photos, β scans

Compound: C[CH2][Hg][S]c1ccccc1C(=O)[O-].[Na+] [thimerosal]
- treatment-related toxicities, eyes examined grossly and microscopically (eyes of rabbits; Group 2, BSS+thimerosal 0.0075 mg, day 2): free of toxicity
- treatment-related toxicities, eyes examined grossly and microscopically (eyes of rabbits; Group 2, BSS+thimerosal 0.0075 mg, day 7): breakdown of the blood retinal barrier
- treatment-related toxicities, eyes examined grossly and microscopically (eyes of rabbits; Group 3, BSS+thimerosal 0.025 mg, day 2 and 7 post dose): severe treatment-related toxic effects

Compound: Polyethylene Glycol 300 [PEG 300]
- Electro Retinography Results (retina of rabbit eyes [1]): Normal
- Histological and Electron Microscopic Results (retina of rabbit eyes [1]): Normal
- Retinal Detachment at 48 hours Post 2nd Injection (retina of rabbit eyes [1]): All
- Retinal Reattachment at 3 weeks Post 2nd Injection (retina of rabbit eyes [1]): All
- safety by indirect ophthalmoscopy, fundus photography, light and electron microscopy and electroretinography (retina of rabbit eyes [1]): safe and without causing any toxicity
- time to induced retinal detachment after second intravitreal injection (retina of rabbit eyes [2]; [3]): ≤ 48 h
- time to spontaneous retinal re-attachment after the PEG injection (retina of rabbit eyes [2]; [3]): ≤ 3 weeks
- Retinal Detachment At 48 hours Post 2nd Injection (retina of rabbit eyes [2]; [4]): All
- Retinal Reattachment At 3 weeks Post 2nd Injection (retina of rabbit eyes [2]; [4]): All
- Histological and Electron Microscopic Results (retina of rabbit eyes [2]; Groups I-IV OD: 100%, 75%, 50% or 25% PEG 300, 3 enucleated eyes): No Adverse
- Electro Retinography Results (retina of rabbit eyes [2]; Groups I-IV OD: 100%, 75%, 50% or 25% PEG 300, after retinal detachment and spontaneous re-attachment 3 weeks later): No Adverse
- safety / toxicity of intravitreal injection (retina of rabbit eyes [2]; hyaluronidase followed by PEG 300 at 100%, 75%, 50% and 25% in saline vehicle): safe and without causing any toxicity
- thickness of the outer nuclear layer after retinal detachment surgery (detached retinas of cats): Thinning of the outer nuclear layer is observed

Compound: Polyethylene Glycol 400 [PEG 400]
- Electro Retinography Results (retina of rabbit eyes [1]): Normal
- Histological and Electron Microscopic Results (retina of rabbit eyes [1]): Normal
- Retinal Detachment at 48 hours Post 2nd Injection (retina of rabbit eyes [1]): All
- Retinal Reattachment at 3 weeks Post 2nd Injection (retina of rabbit eyes [1]): All
- safety by indirect ophthalmoscopy, fundus photography, light and electron microscopy and electroretinography (retina of rabbit eyes [1]): safe and without causing any toxicity
